Assay results as given in ChEMBL document CHEMBL1141160, “Structure-based optimization of phenylbutyrate-derived histone deacetylase inhibitors” (J Med Chem, 2005).

Columns and labels:
[1] = target: Histone deacetylase; conditions: prostate
Description: In vitro inhibitory concentration against histone deacetylase of DU-145 prostate cell nuclear extract as deacetylation of biotinylated [3H]-acetyl histone H4 peptide

[2] = test system: DU-145; experiment: cells; conditions: Homo sapiens, DU-145, 96 h
Description: Inhibitory concentration against DU-145 prostate cancer cell proliferation over 96 hr

Compound | IC50 [1] [nM] | IC50 [2] [nM]
O=C(CCCc1ccccc1)NCc1ccc(C(=O)NO)cc1 | 530 | –
O=C(CCCCc1ccccc1)Nc1ccc(C(=O)NO)cc1 | 250 | –
O=C(CCc1ccc(NC(=O)CCCc2ccccc2)cc1)NO | 1200 | –
O=C(NO)c1ccc(NC(=O)c2ccccc2)cc1 | 210 | –
CC(C)(CCc1ccccc1)C(=O)Nc1ccc(C(=O)NO)cc1 | 25 | –
CN(C(=O)CCCc1ccccc1)c1ccc(C(=O)NO)cc1 | 520 | –

Next, values leading:

IC50 [1] [nM] | IC50 [2] [nM] | Compound
34 | – | CC[C@H](C(=O)Nc1ccc(C(=O)NO)cc1)c1ccccc1
98 | – | CC(C)(C(=O)Nc1ccc(C(=O)NO)cc1)c1ccccc1
54 | – | CCC(C(=O)Nc1ccc(C(=O)NO)cc1)c1ccccc1 (racemic)
– | 820 | CC(C)[C@@H](C(=O)Nc1ccc(C(=O)NO)cc1)c1ccccc1
157 | – | O=C(Cc1ccccc1)Nc1ccc(C(=O)NO)cc1
– | 110 | CC(C)[C@H](C(=O)Nc1ccc(C(=O)NO)cc1)c1ccccc1 [AR-42]
68 | – | CC[C@@H](C(=O)Nc1ccc(C(=O)NO)cc1)c1ccccc1
